PubChem BioAssay AID1418 (Emory University Molecular Libraries Screening Center, 2008)
pIC50: −log10 of the molar value. Values joined by “and” are separate entries in the source; they are usually repeats but may differ in a detail not shown here. Equal values may be shown once. Active and inactive are the calls of the source. How the calls were made is not given here.

These molecules were tested against Induced myeloid leukemia cell differentiation protein Mcl-1 (Homo sapiens) (UniProt Q07820) (assay: blockers of Bid binding to Mcl-1 – biochemical, TR-FRET, dose response (AID 1418)). Settings: Mcl-1/Bid peptide binding, TR-FRET (europium/Dy647), 2 hr.
Sequence of Induced myeloid leukemia cell differentiation protein Mcl-1 (Homo sapiens) (Q07820 whole entry, looked up): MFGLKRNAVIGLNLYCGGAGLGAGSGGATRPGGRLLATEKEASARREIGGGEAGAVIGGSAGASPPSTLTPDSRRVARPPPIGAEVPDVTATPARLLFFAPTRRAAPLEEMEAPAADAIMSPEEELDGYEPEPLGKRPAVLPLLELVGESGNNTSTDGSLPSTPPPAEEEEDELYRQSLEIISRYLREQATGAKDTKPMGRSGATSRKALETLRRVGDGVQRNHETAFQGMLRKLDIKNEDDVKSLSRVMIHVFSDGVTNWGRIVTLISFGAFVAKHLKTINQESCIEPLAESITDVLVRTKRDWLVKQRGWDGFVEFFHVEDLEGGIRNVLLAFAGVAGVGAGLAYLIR

SMILES	IC50	pIC50
O=C(C1=C[C@@H](c2csc3ccccc23)C[C@@H](OCc2ccc(CO)cc2)O1)N1CCN(Cc2ccc3c(c2)OCO3)CC1	> 54 µM (inactive)	
O=C(O)c1ccc(CS(=O)(=O)Cc2ccccc2F)o1	> 54 µM (inactive)	
COc1cccc(CNC(=O)CSCc2cnn(-c3ccccc3)c2-n2cccc2)c1OC	> 54 µM (inactive)	
COc1ccc(-c2csc(/C(C#N)=C\c3ccc(O)c([N+](=O)[O-])c3)n2)cc1OC	> 54 µM (inactive)	
Cc1ccc(-c2nn(CC(=O)NCc3cc(-c4nn(C)c(=O)c5ccccc45)ccc3C)c(=O)c3ccccc23)cc1		6.07
CCOC(=O)c1cc(-c2ccccc2)n(CC(=O)N2CCCC2)c1C	> 54 µM (inactive)	
C=CC(c1ccccc1)C(C(=O)c1ccccc1)N(C)C (configuration not stated)	> 54 µM (inactive)	
O=c1n(S(=O)(=O)c2cccc3cccnc23)c2ccccc2n1S(=O)(=O)c1cccc2cccnc12	> 54 µM (inactive)	
Cc1ccc([N+](=O)[O-])cc1-c1ccc(/C=C(\C#N)c2[nH]nc(N)c2C#N)o1		5.43
COc1cccc2cc(C(=O)Oc3ccc(NC(C)=O)cc3)c(=O)oc12	> 54 µM (inactive)	
O=C(O)CCCC(=O)Nc1cccc(C(=O)Nc2ccccc2C(=O)O)c1	> 54 µM (inactive)	
Cc1ccc(N2C(=O)CC(Cn3nc(C)cc3C)C2=O)cc1 (configuration not stated)	> 54 µM (inactive)	
COC(=O)c1c(C)[nH]c(C)c1C(C)=O		6.27
O=C(N/N=C/c1ccc(F)cc1)c1cc(-c2ccco2)nc2ccccc12		5.48
Cc1sc(NC(=O)c2ccccc2)c(C(=O)N2CCN(C)CC2)c1C	> 54 µM (inactive)	
Cc1cccc2cc(/C=N/NC(=O)CN3CCOCC3)c(Cl)nc12	> 54 µM (inactive)	
Cc1nn(-c2ccccc2C(=O)O)c(=O)c2ccccc12	> 54 µM (inactive)	
C#CCOCCOCCOCCNc1nc(N2CCN(C(=O)[C@H](CCCCN)n3cc(C(N)[C@H](C)CC)nn3)CC2)nc(N2CCN(C(=O)[C@H](CCC(=O)O)n3cc(C(N)[C@H](C)CC)nn3)CC2)n1 (some centres not stated)		5.71
N#Cc1nc(COc2ccc(F)cc2)oc1N1CCN(Cc2ccccc2)CC1	> 54 µM (inactive)	
c1ccc(Oc2nc3ccccc3n3cccc23)cc1	> 54 µM (inactive)	
O=C1c2ccccc2C(=O)N1Cc1nc2ccccc2c(=O)n1-c1cccnc1	> 54 µM (inactive)	
COc1ccccc1NC(=O)CSc1nc2ccccc2cc1Cc1ccccc1	> 54 µM (inactive)	
CCOC(=O)c1sc(N2N=C(C)C(N=Nc3cccc(C)c3)C2=O)nc1C (configuration not stated)		5.85
O=c1c(C(c2ccccc2)c2c(O)sc3ccccc3c2=O)c(O)sc2ccccc12		4.97
O=C(CSc1ccccn1)Nc1ccc2c(c1)C(=O)c1ccccc1C2=O		5.76

SMILES	IC50	pIC50
Cc1cc(-c2ccco2)n2c(nc3ccccc32)c1C#N	> 54 µM (inactive)	
CSC(=NCc1cccnc1)NS(=O)(=O)c1cccs1	> 54 µM (inactive)	
COc1ccc(NC(C)C(=O)Nc2ccc(C#N)cc2)cc1Cl (configuration not stated)	> 54 µM (inactive)	
O=C(COC(=O)CC(NC(=O)c1ccccc1Cl)c1ccccc1)Nc1cccc(F)c1 (configuration not stated)	> 54 µM (inactive)	
CC(=O)N(/N=C/c1cccc(C)c1)c1nc(-c2ccc(Br)cc2)cs1	> 54 µM (inactive)	
Cc1ccc2cc(/C=N/NC(=O)CN3CCOCC3)c(Cl)nc2c1	> 54 µM (inactive)	
COc1ccc2c(c1)c(=O)oc1cc3oc(C)c(C)c3cc12		4.77
COc1ccc(C(=O)/C=C/c2ccc(N3CCCCC3)c([N+](=O)[O-])c2)cc1	> 54 µM (inactive)	
COc1ccc(CCNC(=O)c2ccc(Cl)cc2Cl)cc1OC	> 54 µM (inactive)	
Cc1ccc(N2CCN(C3=NC(=O)/C(=C\c4cccs4)S3)CC2)cc1	> 54 µM (inactive)	
O=C(CN1C(=O)S/C(=C\c2ccc(Cl)cc2)C1=O)NNC(=O)c1ccccc1O		5.13
Cc1ccc(CNc2nc(C)nc3sc4c(c23)CCC4)cc1	> 54 µM (inactive)	
O=C1CN(C(=O)CNCc2ccccc2)c2ccccc2N1	> 54 µM (inactive)	
Cc1cccc(N2CCN(C(=O)Cc3ccc(-n4c(=O)[nH]c5ccsc5c4=O)cc3)CC2C)c1 (configuration not stated)	> 54 µM (inactive)	
COc1ccc(N2C(=O)CC(S/C(N)=N/N=C/c3ccnc4ccccc34)C2=O)cc1 (configuration not stated)	> 54 µM (inactive)	
O=C(Cc1cccs1)N1CCN(S(=O)(=O)c2ccccc2)CC1	> 54 µM (inactive)	
COc1ccc(NS(=O)(=O)c2cccc(NC(=O)CCC(=O)c3ccc(Cl)cc3)c2)cc1	> 54 µM (inactive)	
COC(=O)c1cc(NC(=S)NCc2ccc(Cl)cc2)cc(C(=O)OC)c1	> 54 µM (inactive)	
CC1(c2ccc(Cl)cc2Cl)OCC(Cn2ccnc2)O1 (configuration not stated)	> 54 µM (inactive)	
O=[N+]([O-])c1ccc(-c2cn(-c3ccc(Cl)cc3)c(=S)[nH]2)cc1	> 54 µM (inactive)	
Cc1ccccc1NCC(=O)N/N=C/C(Br)=C/c1ccccc1	> 54 µM (inactive)	
COc1cc(/C=C2\SC(=O)N(Cc3ccc(Cl)cc3)C2=O)cc([N+](=O)[O-])c1O		4.77
O=C(COc1ccc(/C=N/NC(=O)c2cc3ccccc3o2)cc1Br)Nc1ccccc1		6.21
CCOc1ccc(/C=C/C(=O)Nc2ccc(N3CCOCC3)cc2)cc1	> 54 µM (inactive)	
Cc1nc(CSc2nc3[nH]ncc3c(=O)n2-c2ccccc2)cs1	> 54 µM (inactive)	

SMILES	IC50	pIC50
COC(=O)/C(=N/Nc1ccccc1)N1CCCc2ccccc21	> 54 µM (inactive)	
O=C(CSc1nc2ccccc2c2nc3ccccc3n12)NCc1ccco1		5.60
COc1cccc(-c2csc(N3CCN(C(=S)Nc4cccc(Cl)c4)CC3)n2)c1	> 54 µM (inactive)	
CC1CCCN(C(=S)Nc2ccc3nc4n(c(=O)c3c2)CCCCC4)C1 (configuration not stated)	> 54 µM (inactive)	
Cc1ccc2c(c1)C1C=CCC1C(C(=O)O)N2 (configuration not stated)		5.66
CCOC(=O)c1[nH]cnc1C(=O)Nc1ccncc1	> 54 µM (inactive)	
Cc1nc(NC(=O)c2ccccc2)sc1-c1csc(Nc2ccc(C(=O)O)cc2)n1		5.01
Cc1ccc(-c2nn(C)c(=O)c3ccccc23)cc1CNC(=O)Cn1nc(-c2ccccc2)c2ccccc2c1=O		6.25
COc1cc(/C=N/Nc2nnc3c(n2)[nH]c2ccccc23)ccc1O		5.58
O=C(CN1C(=O)/C(=C2\SC(=S)N(C3CCS(=O)(=O)C3)C2=O)c2ccccc21)Nc1ccccc1 (configuration not stated)		6.14
COc1cccc(C(=O)N2CCN(Cc3ccccn3)CC2)c1OC	> 54 µM (inactive)	
COc1ccc(C(=O)Nc2cccc(C)c2)cc1S(=O)(=O)N1CCOCC1	> 54 µM (inactive)	
COc1ccc(/C=N/NS(=O)(=O)c2ccccc2)cc1OC(=O)c1ccc(C)cc1	> 54 µM (inactive)	
O=C(Cn1[nH]c(=O)c2ccccc2c1=O)OCC(=O)N1CCc2ccccc2C1	> 54 µM (inactive)	
Cc1ccc(-c2cc(-c3ccc4c(c3)OCO4)c(C#N)c(N)n2)o1		4.78
N#Cc1c2nc3ccccc3nc2n2cc(NC(=O)c3ccc(F)cc3)ccc12		6.15
c1ccc2c(c1)ncn2CCCCOc1ccc2c(c1)CCC2	> 54 µM (inactive)	
CC(=O)OCCn1c2nc(=O)[nH]c(=O)c-2nc2cc(C)c(C)cc21		4.73
O=C(Nc1ccc2c(c1)OCCO2)NC1(C(F)(F)F)Oc2ccccc2O1	> 54 µM (inactive)	
Fc1ccccc1NC(=S)N1CCN(Cc2ccc3c(c2)OCO3)CC1	> 54 µM (inactive)	
Cc1cc(N)n(-c2ccc3ccccc3c2)n1	> 54 µM (inactive)	
CSc1nc(SCC(=O)O)c2sc3nc(-c4ccccc4)c4c(c3c2n1)CCC4		5.82
Cc1cc(N/N=C/c2ccc(O)c(C)c2O)nc(-c2ccccc2O)n1		5.04
Cc1cc(NC(=O)c2noc3c2CCc2ccccc2-3)no1	> 54 µM (inactive)	
O=C(O)c1ccccc1NS(=O)(=O)c1ccc(NNC(=S)Nc2ccc(OC(F)F)cc2)c([N+](=O)[O-])c1		6.21

SMILES	IC50	pIC50
Cc1cccc(NC(=O)C2CCN(c3nc(C)cc(C)n3)CC2)c1	> 54 µM (inactive)	
O=C(CCCN1C(=O)c2ccccc2C1=O)NCCCn1ccnc1	> 54 µM (inactive)	
CC(=O)Oc1ccc(C(c2ccc(OC(C)=O)cc2)c2ccccn2)cc1	> 54 µM (inactive)	
CCOC(=O)c1cc(C#N)c(SCC(=O)OC)[nH]c1=O	> 54 µM (inactive)	
O=C(Cn1c2ccccc2c(=O)c2ccccc21)N/N=C/c1cc([N+](=O)[O-])ccc1N1CCCCC1		6.19
COc1ccccc1CN1CCN(C(=O)Cc2ccccc2)CC1	> 54 µM (inactive)	
O=C(O)C1Nc2c(O)cc(Cl)c([N+](=O)[O-])c2C2C=CCC12 (configuration not stated)		6.24
Cc1ccc(S(=O)(=O)CCC(=O)OCC(=O)Nc2ncc(Cl)cc2Cl)cc1	> 54 µM (inactive)	
Cc1cc2c(C(C)C)c(O)c(O)c(C=O)c2c(O)c1-c1c(C)cc2c(C(C)C)c(O)c(O)c(C=O)c2c1O		5.93 and 6.07
CCOc1cc(N2CCOCC2)c(OCC)cc1NC(=O)c1cc(-c2ccco2)nc2ccccc12		4.90
CC1=C(C#N)C(=O)NC(=O)/C1=C\c1ccc(-c2cc(C)c(C)cc2[N+](=O)[O-])o1		5.94
CCNC(=O)c1cc(S(=O)(=O)N(C)C)c(Cl)cc1Cl	> 54 µM (inactive)	
CC1=C(SCCC#N)S/C(=C2\SC(C)=C(SCCC#N)S2)S1		5.55
Cc1nc(SCC(=O)Nc2cc(Cl)ccc2[N+](=O)[O-])nc(C)c1C	> 54 µM (inactive)	
NC(N)=NS(=O)(=O)c1ccc(NC(=S)NC(=O)c2sc3ccccc3c2Cl)cc1		5.98
Oc1c(Cl)cc(Cl)cc1Sc1cc(Cl)cc(Cl)c1O		5.78
Cc1ccc(/C=N/NC(=O)c2cc3c(ccc4ccccc43)o2)cc1[N+](=O)[O-]		4.95
Cc1c(C(=O)N/N=C/c2ccc(-c3ccccc3[N+](=O)[O-])o2)sc(N)c1C#N		4.85
Cc1ccc(NC(=O)CN2CCc3ccccc3C2)cc1F	> 54 µM (inactive)	
Cc1cccc(N2CCN(C(=S)Nc3ccc4nc(N5CCN(C)CC5)cc(C)c4c3)CC2)c1C		5.53
O=c1[nH]c(=O)n(CCc2ccccc2)c(O)c1C=NCc1ccc2c(c1)OCO2	inactive	
CC1CCc2c(sc3ncn(CC(=O)N=Nc4c(O)[nH]c5ccccc45)c(=O)c23)C1 (configuration not stated)		5.83
